Experimental data as given in the NIST ThermoML archive (doi:10.1021/je1008747).

Details: Liquid

C[C@H](O)C(=O)[O-].C[N+](C)(C)CCO
Details	mass density [kg/m3]
293.15 K, 101.33 kPa	1143.2
298.15 K, 101.33 kPa	1139.9
303.15 K, 101.33 kPa	1136.8
308.15 K, 101.33 kPa	1133.6
312.4 K, 100 kPa	1130
312.4 K, 10000 kPa	1133
312.4 K, 20000 kPa	1137
312.4 K, 30000 kPa	1140
312.4 K, 40000 kPa	1143
312.4 K, 50000 kPa	1146
312.4 K, 60000 kPa	1150
312.4 K, 70000 kPa	1152
312.4 K, 80000 kPa	1155
312.4 K, 90000 kPa	1157
312.4 K, 100000 kPa	1160
312.4 K, 110000 kPa	1163
312.4 K, 120000 kPa	1166
312.4 K, 130000 kPa	1168
312.4 K, 140000 kPa	1171
312.4 K, 150000 kPa	1173
312.4 K, 160000 kPa	1176
312.4 K, 170000 kPa	1178
312.4 K, 180000 kPa	1181
312.4 K, 190000 kPa	1183
312.4 K, 200000 kPa	1185
313.15 K, 101.33 kPa	1130.5
318.15 K, 101.33 kPa	1127.3
323.15 K, 101.33 kPa	1124.2
328.15 K, 101.33 kPa	1121.1
332.3 K, 10000 kPa	1121
332.3 K, 20000 kPa	1124
332.3 K, 30000 kPa	1128
332.3 K, 40000 kPa	1131
332.3 K, 50000 kPa	1134
332.3 K, 60000 kPa	1137
332.3 K, 70000 kPa	1140
332.3 K, 80000 kPa	1143
332.3 K, 90000 kPa	1146
332.3 K, 100000 kPa	1149
332.3 K, 110000 kPa	1152
332.3 K, 120000 kPa	1154
332.3 K, 130000 kPa	1157
332.3 K, 140000 kPa	1160
332.3 K, 150000 kPa	1162
332.3 K, 160000 kPa	1165
332.3 K, 170000 kPa	1168
332.3 K, 180000 kPa	1170
332.3 K, 190000 kPa	1172
332.3 K, 200000 kPa	1175
333.15 K, 101.33 kPa	1118.1
338.15 K, 101.33 kPa	1115.1
343.15 K, 101.33 kPa	1112.2
348.15 K, 101.33 kPa	1109.3
352.2 K, 10000 kPa	1109
352.2 K, 20000 kPa	1113
352.2 K, 30000 kPa	1116
352.2 K, 40000 kPa	1120
352.2 K, 50000 kPa	1123
352.2 K, 60000 kPa	1126
352.2 K, 70000 kPa	1129
352.2 K, 80000 kPa	1132
352.2 K, 90000 kPa	1135
352.2 K, 100000 kPa	1138
352.2 K, 110000 kPa	1141
352.2 K, 120000 kPa	1144
352.2 K, 130000 kPa	1146
352.2 K, 140000 kPa	1149
352.2 K, 150000 kPa	1152
352.2 K, 160000 kPa	1154
352.2 K, 170000 kPa	1157
352.2 K, 180000 kPa	1159
352.2 K, 190000 kPa	1162
352.2 K, 200000 kPa	1165
353.15 K, 101.33 kPa	1106.4
372.3 K, 10000 kPa	1098
372.3 K, 20000 kPa	1101
372.3 K, 30000 kPa	1105
372.3 K, 40000 kPa	1109
372.3 K, 50000 kPa	1112
372.3 K, 60000 kPa	1115
372.3 K, 70000 kPa	1118
372.3 K, 80000 kPa	1122
372.3 K, 90000 kPa	1125
372.3 K, 100000 kPa	1128
372.3 K, 110000 kPa	1130
372.3 K, 120000 kPa	1133
372.3 K, 130000 kPa	1136
372.3 K, 140000 kPa	1139
372.3 K, 150000 kPa	1142
372.3 K, 160000 kPa	1144
372.3 K, 170000 kPa	1147
372.3 K, 180000 kPa	1150
372.3 K, 190000 kPa	1152
372.3 K, 200000 kPa	1155
392.4 K, 10000 kPa	1086
392.4 K, 20000 kPa	1090
392.4 K, 30000 kPa	1094
392.4 K, 40000 kPa	1098
392.4 K, 50000 kPa	1101
392.4 K, 60000 kPa	1105
392.4 K, 70000 kPa	1108
392.4 K, 80000 kPa	1111
392.4 K, 90000 kPa	1114
392.4 K, 100000 kPa	1117
392.4 K, 110000 kPa	1121
392.4 K, 120000 kPa	1124
392.4 K, 130000 kPa	1126
392.4 K, 140000 kPa	1129
392.4 K, 150000 kPa	1132
392.4 K, 160000 kPa	1135
392.4 K, 170000 kPa	1138
392.4 K, 180000 kPa	1140
392.4 K, 190000 kPa	1143
392.4 K, 200000 kPa	1146

CCn1cc[n+](C)c1.C[C@H](O)C(=O)[O-] [3-ethyl-1-methylimidazolium (S)-2-hydroxypropanoate]
Details	mass density [kg/m3]
293.15 K, 101.33 kPa	1149.7
298.15 K, 101.33 kPa	1146.1
303.15 K, 101.33 kPa	1142.5
308.15 K, 101.33 kPa	1139
312.6 K, 100 kPa	1136
312.6 K, 10000 kPa	1140
312.6 K, 20000 kPa	1144
312.6 K, 30000 kPa	1148
312.6 K, 40000 kPa	1151
312.6 K, 50000 kPa	1155
312.6 K, 60000 kPa	1158
312.6 K, 70000 kPa	1162
312.6 K, 80000 kPa	1165
312.6 K, 90000 kPa	1168
312.6 K, 100000 kPa	1172
312.6 K, 110000 kPa	1175
312.6 K, 120000 kPa	1178
312.6 K, 130000 kPa	1181
312.6 K, 140000 kPa	1183
312.6 K, 150000 kPa	1186
312.6 K, 160000 kPa	1189
312.6 K, 170000 kPa	1192
312.6 K, 180000 kPa	1195
312.6 K, 190000 kPa	1197
312.6 K, 200000 kPa	1200
313.15 K, 101.33 kPa	1135.6
318.15 K, 101.33 kPa	1132.2
323.15 K, 101.33 kPa	1128.8
328.15 K, 101.33 kPa	1125.4
332.1 K, 10000 kPa	1126
332.1 K, 20000 kPa	1131
332.1 K, 30000 kPa	1135
332.1 K, 40000 kPa	1139
332.1 K, 50000 kPa	1142
332.1 K, 60000 kPa	1146
332.1 K, 70000 kPa	1149
332.1 K, 80000 kPa	1153
332.1 K, 90000 kPa	1156
332.1 K, 100000 kPa	1159
332.1 K, 110000 kPa	1163
332.1 K, 120000 kPa	1166
332.1 K, 130000 kPa	1169
332.1 K, 140000 kPa	1172
332.1 K, 150000 kPa	1175
332.1 K, 160000 kPa	1178
332.1 K, 170000 kPa	1180
332.1 K, 180000 kPa	1183
332.1 K, 190000 kPa	1186
332.1 K, 200000 kPa	1189
333.15 K, 101.33 kPa	1122.1
338.15 K, 101.33 kPa	1118.7
343.15 K, 101.33 kPa	1115.4
348.15 K, 101.33 kPa	1112.1
352.1 K, 10000 kPa	1113
352.1 K, 20000 kPa	1118
352.1 K, 30000 kPa	1122
352.1 K, 40000 kPa	1126
352.1 K, 50000 kPa	1130
352.1 K, 60000 kPa	1134
352.1 K, 70000 kPa	1137
352.1 K, 80000 kPa	1141
352.1 K, 90000 kPa	1144
352.1 K, 100000 kPa	1148
352.1 K, 110000 kPa	1151
352.1 K, 120000 kPa	1154
352.1 K, 130000 kPa	1157
352.1 K, 140000 kPa	1160
352.1 K, 150000 kPa	1164
352.1 K, 160000 kPa	1166
352.1 K, 170000 kPa	1169
352.1 K, 180000 kPa	1172
352.1 K, 190000 kPa	1175
352.1 K, 200000 kPa	1178
353.15 K, 101.33 kPa	1108.8
372.2 K, 10000 kPa	1101
372.2 K, 20000 kPa	1105
372.2 K, 30000 kPa	1110
372.2 K, 40000 kPa	1114
372.2 K, 50000 kPa	1118
372.2 K, 60000 kPa	1122
372.2 K, 70000 kPa	1126
372.2 K, 80000 kPa	1129
372.2 K, 90000 kPa	1133
372.2 K, 100000 kPa	1137
372.2 K, 110000 kPa	1140
372.2 K, 120000 kPa	1143
372.2 K, 130000 kPa	1147
372.2 K, 140000 kPa	1150
372.2 K, 150000 kPa	1153
372.2 K, 160000 kPa	1156
372.2 K, 170000 kPa	1159
372.2 K, 180000 kPa	1162
372.2 K, 190000 kPa	1165
372.2 K, 200000 kPa	1168
392.4 K, 10000 kPa	1088
392.4 K, 20000 kPa	1093
392.4 K, 30000 kPa	1098
392.4 K, 40000 kPa	1102
392.4 K, 50000 kPa	1106
392.4 K, 60000 kPa	1110
392.4 K, 70000 kPa	1114
392.4 K, 80000 kPa	1118
392.4 K, 90000 kPa	1122
392.4 K, 100000 kPa	1126
392.4 K, 110000 kPa	1129
392.4 K, 120000 kPa	1133
392.4 K, 130000 kPa	1136
392.4 K, 140000 kPa	1139
392.4 K, 150000 kPa	1143
392.4 K, 160000 kPa	1146
392.4 K, 170000 kPa	1149
392.4 K, 180000 kPa	1152
392.4 K, 190000 kPa	1155
392.4 K, 200000 kPa	1158
412.4 K, 10000 kPa	1076
412.4 K, 20000 kPa	1081
412.4 K, 30000 kPa	1086
412.4 K, 40000 kPa	1090
412.4 K, 50000 kPa	1095
412.4 K, 60000 kPa	1099
412.4 K, 70000 kPa	1103
412.4 K, 80000 kPa	1107
412.4 K, 90000 kPa	1111
412.4 K, 100000 kPa	1115
412.4 K, 110000 kPa	1119
412.4 K, 120000 kPa	1122
412.4 K, 130000 kPa	1126
412.4 K, 140000 kPa	1129
412.4 K, 150000 kPa	1132
412.4 K, 160000 kPa	1136
412.4 K, 170000 kPa	1139
412.4 K, 180000 kPa	1142
412.4 K, 190000 kPa	1145
412.4 K, 200000 kPa	1148
432.2 K, 10000 kPa	1064
432.2 K, 20000 kPa	1069
432.2 K, 30000 kPa	1074
432.2 K, 40000 kPa	1079
432.2 K, 50000 kPa	1084
432.2 K, 60000 kPa	1088
432.2 K, 70000 kPa	1093
432.2 K, 80000 kPa	1097
432.2 K, 90000 kPa	1101
432.2 K, 100000 kPa	1105
432.2 K, 110000 kPa	1109
432.2 K, 120000 kPa	1112
432.2 K, 130000 kPa	1116
432.2 K, 140000 kPa	1119
432.2 K, 150000 kPa	1123
432.2 K, 160000 kPa	1126
432.2 K, 170000 kPa	1130
432.2 K, 180000 kPa	1133
432.2 K, 190000 kPa	1136
432.2 K, 200000 kPa	1139
